Results taken from patent publication US20070048225A1, “NK3 receptor in vivo assay” (priority 2005, published 2007).
Numbered stars: 1 amine (or outer) side, 2 acyl side, 3 side chain; on linkers, the order of the positions; unused ones are H or OH. Square brackets hold non-standard residues; d marks the D form. Peptide text beside a SMILES is read from it. NMeF = CN[C@@H](Cc1ccccc1)C(=O)O; Suc = O=C(CCC(=O)[*:2])[*:1]

Columns and labels:
NK3-receptor = target: T1, NK3-receptor (Homo sapiens, UniProt P29371); details: double blind placebo controlled; Meltzer et al. 2004; cited from earlier work
T1 construct: active in a double blind placebo controlled clinical trial in schizophrenia patients; host or cells: schizophrenia patients (Meltzer et al., Am J Psych 161:975-84, 2004)
T1 sequence (P29371 1-465): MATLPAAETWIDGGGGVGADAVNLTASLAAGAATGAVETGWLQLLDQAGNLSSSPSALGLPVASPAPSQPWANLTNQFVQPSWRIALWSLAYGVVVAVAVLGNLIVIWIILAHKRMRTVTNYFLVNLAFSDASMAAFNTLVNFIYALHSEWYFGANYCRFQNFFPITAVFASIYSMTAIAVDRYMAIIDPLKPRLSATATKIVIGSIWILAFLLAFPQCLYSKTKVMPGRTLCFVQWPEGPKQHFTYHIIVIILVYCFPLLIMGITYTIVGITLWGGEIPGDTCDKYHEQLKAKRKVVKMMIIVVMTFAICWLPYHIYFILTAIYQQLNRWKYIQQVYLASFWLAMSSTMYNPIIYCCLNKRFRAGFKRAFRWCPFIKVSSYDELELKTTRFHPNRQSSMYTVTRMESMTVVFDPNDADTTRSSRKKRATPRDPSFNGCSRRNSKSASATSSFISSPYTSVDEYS

NK3 receptor = assay: Senktide-induced locomotor activity in gerbils (total distance traveled); assay type: in vivo, Mongolian gerbil; details: senktide 0.01, 0.03 or 0.1 nM/5 μL ICV tested, effect at 0.1 nM/5 μL, activity measured for 90 minutes, FIG. 1
Description: Male and female Mongolian gerbils [Biological Research Laboratories, 4414 Füllinsdorf, Switzerland] weighing between 40-70 g were used. Gerbils were housed four per cage for approximately four to seven days following arrival in the laboratory colony. The gerbils had ad libitum access to tap water and lab chow in the home cage. The animal quarters were maintained on a 12:12 hour light-dark cycle with light onset at 6 a.m. and with both temperature (21-23° C.) and humidity (55-65%) regulated. All testing was conducted during the light phase of the light-dark cycle. All procedures described here received prior approval from the City of Basel Cantonal Animal Protection Committee based on adherence to federal and local regulations. The experiments were carried out in an animal colony supervised by the veterinary staff of Hoffmann-La Roche Ltd.
The antagonists were prepared immediately prior to use (vehicle 0.3% Tween-80/saline). […]
The incision was closed using a clip suture and gerbils were placed into perspex boxes on recovery of their righting reflex and then placed into locomotor activity boxes (Accuscan instruments, USA). Activity was then measured automatically for a period of 90 minutes.
Data were analysed using a One way anova followed by Dunnet multiple comparison test or t-test (one-tailed) where appropriate (Statistica, Statsoft).

## CC(=O)N(C)C1(c2ccccc2)CCN(CCC[C@]2(c3ccc(Cl)c(Cl)c3)CCCN(C(=O)c3ccccc3)C2)CC1 [SR142801]
NK3-receptor
  activity in clinical trial in schizophrenia patients: active

## CSCC[C@H](NC(=O)[C@H](CC(C)C)NC(=O)CNC(=O)[C@H](Cc1ccccc1)N(C)C(=O)[C@H](Cc1ccccc1)NC(=O)[C@H](CC(=O)O)NC(=O)CCC(=O)O)C(N)=O [Senktide, N-(3-carboxy-1-oxopropyl)-L-α-aspartyl-L-phenylalanyl-N-methyl-L-phenylalanylglycyl-L-leucyl-L-methioninamide] (Suc-DF[NMeF]GLM-NH2)
NK3 receptor
  total distance traveled (locomotor activity): significant increase
